Values after ≈ are worked out from the molar mass of the structure shown.

In test [1] the test system is Staphylococcus aureus. Description: In vitro antibacterial activity against erythromycin-susceptible Staphylococcus aureus 209P-JC strain. In kind it is functional.
Test [2] has as its system Staphylococcus aureus. As to the kind of experiment: In vitro antibacterial activity against constitutively MLS B resistant Staphylococcus aureus SR138 strain encoded by an ermA gene. It counts as functional.
Test [3] concerns Staphylococcus aureus. As to the kind of experiment: In vitro antibacterial activity against an inducibly MLS B resistant Staphylococcus aureus B1 strain. It counts as functional.
The test system of test [4] is Streptococcus pneumoniae. Description: In vitro antibacterial activity against constitutively MLS B resistant […] strain encoded by an ermB gene. It counts as functional.
In test [5] the test system is Enterococcus faecalis. Description: In vitro antibacterial activity against erythromycin-susceptible Enterococcus faecalis ATCC 19434 strain. It counts as functional.
Test [6] concerns Enterococcus faecium. As to the kind of experiment: In vitro antibacterial activity against erythromycin-susceptible Enterococcus faecium ATCC 29212 strain. It counts as functional.
The test system of test [7] is Staphylococcus aureus. As to the kind of experiment: In vivo Minimum inhibitory conc against erythromycin susceptible Staphylococcus aureus strain Smith by mouse protection test. In kind it is functional.
Test [8] relates to Streptococcus pneumoniae. Description: In vitro antibacterial activity against erythromycin efflux resistant Streptococcus pneumoniae 210 strain. It counts as functional.
In test [9] the test system is Staphylococcus aureus. As to the kind of experiment: (§1) In vivo effective dose against erythromycin susceptible Staphylococcus aureus Smith strain by mouse protection test(95% confidence limits). In kind it is functional.
Test [10] has as its system Haemophilus influenzae. As to the kind of experiment: In vitro antibacterial activity against erythromycin-susceptible Hemophilus influenzae ATCC 43095 strain. In kind it is functional.
Test [11] relates to Streptococcus pneumoniae. Description: In vitro antibacterial activity against erythromycin- susceptible Streptococcus pneumoniae IID553 strain. In kind it is functional.
In test [12] the test system is Staphylococcus aureus. Description: In vitro antibacterial activity against inducibly MLS B resistant Staphylococcus aureus B1 strain. It counts as functional.
The subject of test [13] is Enterococcus faecium. Description: In vitro antibacterial activity against erythromycin-susceptible Enterococcus faecium ATCC 19434 strain.
Test [14] deals with Mus musculus. The description is as §1. In kind it is functional.
Test [15] has as its system Enterococcus faecalis. As to the kind of experiment: In vitro antibacterial activity against erythromycin-susceptible Enterococcus faecalis ATCC 29212 strain. It counts as functional.
Test [16] has as its system Staphylococcus aureus. Description: In vitro antibacterial activity against constitutively MLS B resistant Staphylococcus aureus SR138 strain. In kind it is functional.
Test [17] deals with Staphylococcus aureus. As to the kind of experiment: In vivo Minimum inhibitory conc against erythromycin susceptible Staphylococcus aureus Smith strain by mouse protection test. In kind it is functional.
Test [18] deals with Streptococcus pneumoniae. Description: In vitro antibacterial activity against MLS-B resistant Streptococcus pneumoniae 221 strain encoded by an erm B gene. It counts as functional.
The subject of test [19] is Streptococcus pneumoniae. As to the kind of experiment: In vitro antibacterial activity against erythromycin-susceptible Streptococcus pneumoniae IID553 strain. It counts as functional.
Test [20] has as its system Mus musculus. Description: In vivo effective dose against erythromycin susceptible Staphylococcus aureus strain Smith by mouse protection test. In kind it is functional.
For test [21], the system named is Staphylococcus aureus. As to the kind of experiment: In vivo minimum inhibitory concentration against erythromycin susceptible Staphylococcus aureus Smith strain by mouse protection test. It counts as functional.
Test [22] has as its system Enterococcus faecium. Description: In vitro antibacterial activity against erythromycin-susceptible Enterococcus faecium ATCC 19434 strain. In kind it is functional.

Consider `CC[C@H]1OC(=O)[C@H](C)[C@@H](OC(C)=O)[C@H](C)[C@@H](OC2O[C@H](C)C[C@H](N(C)C)C2O)[C@@](C)(OC)C[C@@H](C)C(=O)[C@H](C)[C@@H](O)[C@]1(C)O` (stereo partly specified), for which the results for the MIC in test [1], in [2] and in test [3] were 50 µg/mL (≈ 79.1 µM), above 100 µg/mL and above 100 µg/mL, respectively.

Consider `CC[C@H]1OC(=O)[C@H](C)[C@@H](OC(=O)Cc2ccccc2)[C@H](C)[C@@H](O[C@@H]2O[C@H](C)C[C@H](N(C)C)[C@H]2O)[C@@](C)(OC)C[C@@H](C)C(=O)[C@H](C)[C@@H](O)[C@]1(C)O`, for which the MIC was 0.78 µg/mL (≈ 1.1 µM) in test [1], above 100 µg/mL in [2] and above 100 µg/mL in test [3].

As to `CC[C@H]1OC(=O)[C@H](C)[C@@H](OC2CCCCO2)[C@H](C)[C@@H](OC2O[C@H](C)C[C@H](N(C)C)C2O)[C@@](C)(OC)C[C@@H](C)C(=O)[C@H](C)[C@@H](O)[C@]1(C)O` (stereo partly specified), the MIC is 12.5 µg/mL (≈ 18.5 µM) in test [1], above 100 µg/mL in [2] and above 100 µg/mL in test [3].

With `CC[C@H]1OC(=O)[C@H](C)[C@@H](OC(=O)c2ccc([N+](=O)[O-])cc2)[C@H](C)[C@@H](OC2O[C@H](C)C[C@H](N(C)C)C2O)[C@@](C)(OC)C[C@@H](C)C(=O)[C@H](C)[C@@H](O)[C@]1(C)O` (stereo partly specified), the MIC is 50 µg/mL (≈ 67.7 µM) in [1], above 100 µg/mL in test [2] and above 100 µg/mL in test [3].

In turn, `CC[C@H]1OC(=O)[C@H](C)[C@@H](OS(=O)(=O)Cc2ccccc2)[C@H](C)[C@@H](OC2O[C@H](C)C[C@H](N(C)C)C2O)[C@@](C)(OC)C[C@@H](C)C(=O)[C@H](C)[C@@H](O)[C@]1(C)O` (stereo partly specified) gave an MIC in test [1] above 100 µg/mL.

Turning to `CC[C@H]1OC(=O)[C@H](C)[C@@H](OC(=O)CNC(=O)OCc2ccccc2)[C@H](C)[C@@H](OC2O[C@H](C)C[C@H](N(C)C)C2O)[C@@](C)(OC)C[C@@H](C)C(=O)[C@H](C)[C@@H](O)[C@]1(C)O` (stereo partly specified), the values for the MIC in test [1], in [2] and in test [3] were 3.13 µg/mL (≈ 4.01 µM), above 100 µg/mL and above 100 µg/mL, respectively.

As for `CC[C@H]1OC(=O)[C@H](C)[C@@H](OC(=O)CC#N)[C@H](C)[C@@H](OC2O[C@H](C)C[C@H](N(C)C)C2O)[C@@](C)(OC)C[C@@H](C)C(=O)[C@H](C)[C@@H](O)[C@]1(C)O` (stereo partly specified), the MIC was 25 µg/mL (≈ 38.1 µM) in [1], above 100 µg/mL in [2] and above 100 µg/mL in test [3].

As usually defined, the ED50 is the midpoint of the dose-response relation. For `CC[C@H]1OC(=O)[C@H](C)[C@@H](O[C@H]2C[C@@](C)(OC)[C@@H](O)[C@H](C)O2)[C@H](C)[C@@H](O[C@@H]2O[C@H](C)C[C@H](N(C)C)[C@H]2O)[C@](C)(O)C[C@@H](C)C(=O)[C@H](C)[C@@H](O)[C@]1(C)O` [ERYTHROMYCIN], the MIC is above 100 µg/mL in test [4]; 3.13 µg/mL (≈ 4.26 µM) in [5]; 1.56 µg/mL (≈ 2.13 µM) in test [6]; 0.2 µg/mL (≈ 0.273 µM) in test [7]; 1.56 µg/mL (≈ 2.13 µM) in test [8]; 6.25 µg/mL (≈ 8.52 µM) in test [10]. The molecule further showed an MIC in test [11] of 0.1 µg/mL (≈ 0.136 µM). Further, the 50% effect level in test [9] (ED50) was put at a dose of 56.6 mg/kg.

As for `CC[C@H]1OC(=O)[C@H](C)[C@@H](O)[C@H](C)[C@@H](OC2O[C@H](C)C[C@H](N(C)C)C2O)[C@@](C)(OC)C[C@@H](C)C(=O)[C@H](C)[C@@H](O)[C@]1(C)O` (stereo partly specified), the MIC in [1] was above 100 µg/mL.

As to `CC[C@H]1OC(=O)[C@H](C)[C@@H](OC(=O)CN)[C@H](C)[C@@H](OC2O[C@H](C)C[C@H](N(C)C)C2O)[C@@](C)(OC)C[C@@H](C)C(=O)[C@H](C)[C@@H](O)[C@]1(C)O` (stereo partly specified), the figures for the MIC in test [1], in [2] and in test [3] were 12.5 µg/mL (≈ 19.3 µM), above 100 µg/mL and above 100 µg/mL, respectively.

Turning to `CC[C@H]1OC(=O)[C@H](C)[C@@H](OC(=O)CNC(=O)OC(C)(C)C)[C@H](C)[C@@H](OC2O[C@H](C)C[C@H](N(C)C)C2O)[C@@](C)(OC)C[C@@H](C)C(=O)[C@H](C)[C@@H](O)[C@]1(C)O` (stereo partly specified), the MIC in test [1] was 12.5 µg/mL (≈ 16.7 µM); in [2], above 100 µg/mL; in [3] it was above 100 µg/mL.

With `CC[C@H]1OC(=O)[C@H](C)[C@@H](O[C@H]2C[C@@](C)(OC)[C@@H](O)[C@H](C)O2)[C@H](C)[C@@H](O[C@@H]2O[C@H](C)C[C@H](N(C)C)[C@H]2O)[C@](C)(OC)C[C@@H](C)C(=O)[C@H](C)[C@@H](O)[C@]1(C)O` [CLARITHROMYCIN], the MIC was above 100 µg/mL in [12]; 0.1 µg/mL (≈ 0.134 µM) in [1]; 1.56 µg/mL (≈ 2.09 µM) in test [13]; 1.56 µg/mL (≈ 2.09 µM) in test [8]; 6.25 µg/mL (≈ 8.36 µM) in test [10]; 1.56 µg/mL (≈ 2.09 µM) in [15]. Besides, the MIC is above 100 µg/mL in test [16], 0.2 µg/mL (≈ 0.267 µM) in test [17], above 100 µg/mL in test [18] and 0.05 µg/mL (≈ 0.0668 µM) in test [19]. Moreover, the ED50 in test [14] is 7.6 mg/kg.

Regarding `CC[C@H]1OC(=O)[C@H](C)[C@@H](OC(=O)Cc2ccc([N+](=O)[O-])cc2)[C@H](C)[C@@H](O[C@@H]2O[C@H](C)C[C@H](N(C)C)[C@H]2O)[C@@](C)(OC)C[C@@H](C)C(=O)[C@H](C)[C@@H](O)[C@]1(C)O`, the MIC is 0.2 µg/mL (≈ 0.266 µM) in test [1]; above 100 µg/mL in test [2]; 0.39 µg/mL (≈ 0.518 µM) in test [21]; 0.2 µg/mL (≈ 0.266 µM) in test [8]; 25 µg/mL (≈ 33.2 µM) in [10]; 0.39 µg/mL (≈ 0.518 µM) in test [3]. In addition, the MIC is 0.2 µg/mL (≈ 0.266 µM) in [15], above 100 µg/mL in test [18], 0.2 µg/mL (≈ 0.266 µM) in test [19] and 0.05 µg/mL (≈ 0.0664 µM) in test [22]. Moreover, in test [20], the ED50 was found to be 15.4 mg/kg.

Source of the values: ChEMBL document CHEMBL1134276, “Synthesis and antibacterial activity of acylides (3-O-acyl-erythromycin derivatives): a novel class of macrolide antibiotics” (2001).
